Source: PMC8583996, “Berberine Inhibits MDA-MB-231 Cells as an Agonist of G Protein-Coupled Estrogen Receptor 1” (International Journal of Molecular Sciences, 2021)

Target: T1, human GPER1 (Homo sapiens, UniProt Q99527)
T1 construct: Sf9 baculovirus; Ni-NTA (tag not described) and size exclusion; DDM/CHS; primarily monomer
Test: intrinsic fluorescence quenching titration
Format: binding

T1 sequence (Q99527 whole entry): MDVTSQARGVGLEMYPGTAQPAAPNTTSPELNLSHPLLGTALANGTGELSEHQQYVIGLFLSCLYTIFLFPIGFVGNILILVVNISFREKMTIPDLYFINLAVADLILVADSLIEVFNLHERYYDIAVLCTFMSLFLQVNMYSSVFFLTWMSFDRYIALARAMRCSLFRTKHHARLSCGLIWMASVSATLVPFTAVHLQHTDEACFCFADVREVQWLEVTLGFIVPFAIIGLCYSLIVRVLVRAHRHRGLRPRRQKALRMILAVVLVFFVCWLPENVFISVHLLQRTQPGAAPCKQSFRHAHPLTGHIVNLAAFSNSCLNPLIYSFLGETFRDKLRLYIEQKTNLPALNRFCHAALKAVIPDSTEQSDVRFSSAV

- Kd: 0.89 nM
SMILES: COc1ccc2cc3[n+](cc2c1OC)CCc1cc2c(cc1-3)OCO2 [BBR]
